Legend:
[1] = In vitro skin S9 metabolic stability assay (human); format: in vitro ADME; conditions: human skin S9 sub-fraction, pH 7.4, 1.0 mg/mL protein, 1 mM NADPH, read-out: Half-Life; for half-life at 0.2 μM: Human skin S9, 0.2 μM; for half-life at 2 μM: Human skin S9, 2 μM
Method: (§1) Assay 6: In Vitro Skin S9 Metabolic Stability Assay
(§2) The objective of this assay was to assess the metabolic stability of compounds in human and mouse skin S9 sub-fraction. Human and mouse skin S9 sub-fractions obtained from Bioreclamation-IVT (Baltimore, Md.) were thawed on ice and diluted into 0.1M potassium phosphate buffer pH 7.4 to yield final incubation protein concentrations of 1.0 mg/mL. Test compounds (10 mM) were diluted into phosphate buffer to yield final incubation concentrations of 0.2 μM and 2.0 μM. Incubations were conducted at 37° C. temperature following addition of 1 mM NADPH and test aliquots were taken at time points 0, 5, 10, 20, 30 and 45 minutes. Each aliquot was crashed into water with 3% formic acid and 1 μM internal standard. The resulting samples were injected onto an LC-MS/MS system for analysis.
(§3) For each incubation, the peak area of the analytes in each t0 aliquot was set to 100% and the peak areas from subsequent time point aliquots were converted to percentage of parent compound remaining relative to t0. The percentage of parent compound remaining at each time point was converted to natural log scale and plotted versus time in minutes to determine a disappearance half-life.

[2] = In vitro skin S9 metabolic stability assay (mouse); format: in vitro ADME; conditions: mouse skin S9 sub-fraction, pH 7.4, 1.0 mg/mL protein, 1 mM NADPH, read-out: Half-Life; for half-life at 0.2 μM: Mouse skin S9, 0.2 μM; for half-life at 2 μM: Mouse skin S9, 2 μM
Method: as §1, §2, §3

half-life at 0.2 μM [1] [min] | half-life at 2 μM [1] [min] | half-life at 0.2 μM [2] [min] | half-life at 2 μM [2] [min] | Compound
> 30 | > 30 | > 30 | > 30 | CCOc1ccc2ccc(=O)oc2c1 [7-Ethoxycoumarin, reference compound]
< 15 | < 15 | < 15 | < 15 | CC(Cc1cccc(C(F)(F)F)c1)NCCOC(=O)c1ccccc1 (centres unmarked) [Benfluorex, reference compound]

Reference: patent US11845747B2, “Ester and carbonate pyrimidine compounds as JAK kinase inhibitors” (priority 2019, dated 2023)
